Measured values taken from US10688093B2, “Methods, compositions, and uses of novel Fyn kinase inhibitors” (priority 2015, dated 2020).

Target: full-length recombinant human FYN A (Homo sapiens (Human), UniProt P06241)
Experiment: ADP-Glo Kinase Assay of FYN kinase inhibition
Format: biochemical
Settings: primary screen, initial compounds
In short: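 ADP-Glo read-out of peptide phosphorylation after 90 min RT with 12.5 pmol ATP and 100 pg 12-mer substrate. Enzyme was N-GST full-length human FYN A from insect cells, 3 pg, pre-incubated 30 min with compound, 10 points from 10 μM top, 3-fold steps; IC50 from curve.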

Sequence of full-length recombinant human FYN A (P06241 whole entry): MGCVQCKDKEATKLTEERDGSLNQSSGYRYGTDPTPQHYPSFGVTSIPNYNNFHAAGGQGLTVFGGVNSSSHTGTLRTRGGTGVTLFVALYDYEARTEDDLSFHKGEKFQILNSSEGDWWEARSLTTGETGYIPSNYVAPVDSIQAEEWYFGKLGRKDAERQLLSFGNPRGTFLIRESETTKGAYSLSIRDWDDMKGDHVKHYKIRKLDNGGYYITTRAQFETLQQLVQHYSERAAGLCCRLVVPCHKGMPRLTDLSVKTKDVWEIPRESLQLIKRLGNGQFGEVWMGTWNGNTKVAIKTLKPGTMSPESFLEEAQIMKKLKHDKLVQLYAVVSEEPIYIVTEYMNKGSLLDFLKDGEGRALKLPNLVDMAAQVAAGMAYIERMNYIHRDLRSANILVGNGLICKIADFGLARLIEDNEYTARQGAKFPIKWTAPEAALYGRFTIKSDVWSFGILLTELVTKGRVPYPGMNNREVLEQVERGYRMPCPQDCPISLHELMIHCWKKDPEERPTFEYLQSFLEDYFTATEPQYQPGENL

| IC50 | SMILES |
| --- | --- |
| 1940 nM | c1ccc(-c2ccc3ncc(-c4cccnc4)n3n2)cc1 [Compound 352, 6-phenyl-3-(3-pyridyl)imidazo [1,2-b]pyridazine] |
| 346 nM | c1cncc(-c2cnc3ccc(-c4cccs4)nn23)c1 [Compound 353, 3-(3-pyridyl)-6-(2-thienyl) imidazo[1,2-b] pyridazine] |
| 466 nM | CC(=O)Nc1cccc(-c2cnc3ccc(-c4cccc(C(C)=O)c4)nn23)c1 [Compound 354, N-[3-[6-(3-acetylphenyl)imidazo[1,2-b]pyridazin-3-yl]phenyl] acetamide] |
| 1240 nM | COc1cccc(-c2ccc3ncc(-c4cccc(O)c4)n3n2)c1 [Compound 355, 3-[6-(3-methoxyphenyl)imidazo[1,2-b]pyridazin-3-yl]phenol] |
| 2330 nM | COc1ccccc1-c1ccc2ncc(-c3cccc(C(C)=O)c3)n2n1 [Compound 357, 1-[3-[6-(2-methoxyphenyl)imidazo[1,2-b]pyridazin-3-yl]phenyl] ethanone] |
| 373 nM | CC(=O)c1cccc(-c2cnc3ccc(-c4cnn(C)c4)nn23)c1 [Compound 358, 1-[3-[6-(1-methylpyrazol-4-yl)imidazo[1,2-3]pyridazin-3-yl]phenyl] ethanone] |
| 1210 nM | CS(=O)(=O)Nc1cccc(-c2ccc3ncc(-c4cccs4)n3n2)c1 [Compound 359, N-[3-[3-(2-thienyl)imidazo [1,2-b]pyridazin-6-yl]phenyl] methane-sulfonamide] |
| 688 nM | c1cncc(-c2ccc3ncc(-c4ccc5c(c4)OCO5)n3n2)c1 [Compound 360, 3-(1,3-benzodioxol-5-yl)-6-(3-pyridyl)imidazo [1,2-b]pyridazine] |
| 2910 nM | OCc1ccc(-c2ccc3ncc(-c4cccnc4)n3n2)cc1 [Compound 361, [4-[3-(3-pyridyl)imidazo [1,2-b]pyridazin-6-yl]phenyl] methanol] |
| 285 nM | OCc1ccc(-c2ccc3ncc(-c4cccc(O)c4)n3n2)cc1 [Compound 363, 3-[6-[4-(hydroxymethyl)phenyl]imidazo [1,2-b]pyridazin-3-yl]phenol] |
| 3900 nM | COc1ccccc1-c1ccc2ncc(-c3ccc(CO)cc3)n2n1 [Compound 364] |
| 1560 nM | COc1cccc(-c2ccc3ncc(-c4ccc(CO)cc4)n3n2)c1 [Compound 365, [4-[6-(3-methoxyphenyl)imidazo[1,2-b]pyridazin-3-yl]phenyl] methanol] |
| 221 nM | COc1cccc(-c2ccc3ncc(-c4ccc(O)c(OC)c4)n3n2)c1 [Compound 366, 2-methoxy-4-[6-(3-methoxyphenyl)imidazo[1,2-b]pyridazin-3-yl]phenol] |
| 3440 nM | CC(=O)c1cccc(-c2cnc3ccc(-c4ccoc4)nn23)c1 [Compound 367, 1-[3-[6-(3-furyl)imidazo [1,2-b]pyridazin-3-yl]phenyl] ethanone] |
| 951 nM | NC(=O)c1ccc(-c2ccc3ncc(-c4cccs4)n3n2)cc1 [Compound 368, 4-[3-(2-thienyl)imidazo [1,2-b]pyridazin-6-yl]benzamide] |
| 367 nM | O=C(NCCO)c1cccc(-c2ccc3ncc(-c4ccc5c(c4)OCO5)n3n2)c1 [Compound 369, 3-[3-(1,3-benzodioxol-5-yl)imidazo[1,2-b]pyridazin-6-yl]-N-(2-hydroxyethyl) benzamide] |
| 332 nM | OCc1cccc(-c2ccc3ncc(-c4ccc5c(c4)OCO5)n3n2)c1 [Compound 370, [3-[3-(1,3-benzodioxol-5-yl)imidazo[1,2-b]pyridazin-6-yl]phenyl] methanol] |
| 210 nM | CC(=O)Nc1cccc(-c2cnc3ccc(-c4cccs4)nn23)c1 [Compound 371, N-[3-[6-(2-thienyl)imidazo [1,2-b]pyridazin-3-yl]phenyl] acetamide] |
| 894 nM | Oc1cccc(-c2cnc3ccc(-c4ccccc4)nn23)c1 [Compound 372, 3-(6-phenylimidazo [1,2-b]pyridazin-3-yl)phenol] |
| 1600 nM | CC(=O)c1cccc(-c2ccc3ncc(-c4cccc(O)c4)n3n2)c1 [Compound 373, 1-[3-[3-(3-hydroxyphenyl)imidazo[1,2-b]pyridazin-6-yl]phenyl] ethanone] |
| 2960 nM | OCc1ccc(-c2cnc3ccc(-c4cccc(F)c4)nn23)cc1 [Compound 374, [4-[6-(3-fluorophenyl)imidazo[1,2-b]pyridazin-3-yl]phenyl] methanol] |
| 2170 nM | CC(=O)c1cccc(-c2ccc3ncc(-c4cccc(CO)c4)n3n2)c1 [Compound 375, 1-[3-[3-[3-(hydroxymethyl)phenyl]imidazo [1,2-b]pyridazin-6-yl]phenyl] ethanone] |
| 886 nM | CC(=O)c1cccc(-c2cnc3ccc(-c4cccc(N(C)C)c4)nn23)c1 [Compound 376, 1-[3-[6-[3-(dimethylamino)phenyl]imidazo [1,2-b]pyridazin-3-yl]phenyl] ethanone] |

| IC50 | SMILES |
| --- | --- |
| 283 nM | CC(=O)c1cccc(-c2cnc3ccc(-c4ccc(N)nc4)nn23)c1 [Compound 377, 1-[3-[6-(6-amino-3-pyridyl)imidazo[1,2-b]pyridazin-3-yl]phenyl] ethanone] |
| 2360 nM | OCc1ccc(-c2ccc3ncc(-c4cccs4)n3n2)cc1 [Compound 378, [4-[3-(2-thienyl)imidazo [1,2-b]pyridazin-6-yl]phenyl] methanol] |
| 703 nM | COc1ccc(-c2cnc3ccc(-c4cccc(NS(C)(=O)=O)c4)nn23)cc1OC [Compound 379, N-[3-[3-(3,4-dimethoxyphenyl)imidazo[1,2-b]pyridazin-6-yl]phenyl] methane-sulfonamide] |
| 519 nM | CC(=O)c1cccc(-c2cnc3ccc(-c4cccc(C(N)=O)c4)nn23)c1 [Compound 380, 3-[3-(3-acetylphenyl)imidazo[1,2-b]pyridazin-6-yl]benzamide] |
| 1410 nM | CS(=O)(=O)Nc1cccc(-c2ccc3ncc(-c4cccnc4)n3n2)c1 [Compound 381, N-[3-[3-(3-pyridyl)imidazo [1,2-b]pyridazin-6-yl]phenyl] methane-sulfonamide] |
| 14600 nM | Oc1cccc(-c2cnc3ccc(-c4cccc5ncccc45)nn23)c1 [Compound 383, 3-[6-(5-quinolyl)imidazo [1,2-b]pyridazin-3-yl]phenol] |
| 1150 nM | CS(=O)(=O)Nc1cccc(-c2ccc3ncc(-c4cccc(CO)c4)n3n2)c1 [Compound 384] |
| 959 nM | COc1cc(-c2cnc3ccc(-c4ccccc4OC)nn23)ccc1O [Compound 385, 2-methoxy-4-[6-(2-methoxy-phenyl)imidazo[1,2-b]pyridazin-3-yl]phenol] |
| 1720 nM | CNC(=O)c1cccc(-c2ccc3ncc(-c4cccc(C(C)=O)c4)n3n2)c1 [Compound 386, 3-[3-(3-acetylphenyl)imidazo[1,2-b]pyridazin-6-yl]-N-methyl-benzamide] |
| 1680 nM | OCc1cccc(-c2ccc3ncc(-c4cccs4)n3n2)c1 [Compound 387, [3-[3-(2-thienyl)imidazo [1,2-b]pyridazin-6-yl]phenyl] methanol] |
| 1310 nM | Cn1cc(-c2ccc3ncc(-c4cccs4)n3n2)cn1 [Compound 388, 6-(1-methylpyrazol-4-yl)-3-(2-thienyl)imidazo [1,2-b]pyridazine] |
| 367 nM | COc1ccc(-c2cnc3ccc(-c4cccc(C(=O)NCCO)c4)nn23)cc1OC [Compound 389, 3-[3-(3,4-dimethoxyphenyl)imidazo[1,2-a]pyridazin-6-yl]-N-(2-hydroxyethyl) benzamide] |
| 956 nM | Cn1cc(-c2ccc3ncc(-c4ccc5c(c4)OCO5)n3n2)cn1 [Compound 390, 3-(1,3-benzodioxol-5-yl)-6-(1-methylpyrazol-4-yl)imidazo[1,2-b]pyridazine] |
| 367 nM | COc1ccc(-c2cnc3ccc(-c4cnn(C)c4)nn23)cc1OC [Compound 391, 3-(3,4-dimethoxy-phenyl)-6-(1-methylpyrazol-4-yl)imidazo[1,2-b]pyridazine] |
| 2260 nM | Oc1cccc(-c2cnc3ccc(-c4cccc(F)c4)nn23)c1 [Compound 392, 3-[6-(3-fluorophenyl)imidazo[1,2-b]pyridazin-3-yl]phenol] |
| 1120 nM | CC(=O)c1cccc(-c2cnc3ccc(-c4cccc(N)c4)nn23)c1 [Compound 393, 1-[3-[6-(3-aminophenyl)imidazo[1,2-b]pyridazin-3-yl]phenyl] ethanone] |
| 2350 nM | COc1ccccc1-c1ccc2ncc(-c3cccnc3)n2n1 [Compound 394, 6-(2-methoxy-phenyl)-3-(3-pyridyl)imidazo [1,2-b]pyridazine] |
| 404 nM | COc1ccc(-c2cnc3ccc(-c4ccncc4)nn23)cc1OC [Compound 395, 3-(3,4-dimethoxy-phenyl)-6-(4-pyridyl)imidazo [1,2-b]pyridazine] |
| 586 nM | Oc1cccc(-c2cnc3ccc(-c4cccnc4)nn23)c1 [Compound 396, 3-[6-(3-pyridyl)imidazo [1,2-b]pyridazin-3-yl]phenol] |
| 388 nM | Cn1cc(-c2ccc3ncc(-c4cccc(O)c4)n3n2)cn1 [Compound 397, 3-[6-(1-methylpyrazol-4-yl)imidazo[1,2-b]pyridazin-3-yl]phenol] |
| 2940 nM | OCc1ccc(-c2cnc3ccc(-c4ccc(F)cc4)nn23)cc1 [Compound 398, [4-[6-(4-fluorophenyl)imidazo[1,2-3]pyridazin-3-yl]phenyl] methanol] |
| 295 nM | COc1cc(-c2cnc3ccc(-c4cccc(O)c4)nn23)ccc1O [Compound 399, 4-[6-(3-hydroxyphenyl)imidazo[1,2-b]pyridazin-3-yl]-2-methoxy-phenol] |
| 282 nM | COc1ccc(-c2ccc3ncc(-c4ccncc4)n3n2)cc1OC [Compound 400, 6-(3,4-dimethoxy-phenyl)-3-(4-pyridyl)imidazo [1,2-b]pyridazine] |

| SMILES | IC50 |
| --- | --- |
| COc1cc(-c2cnc3ccc(-c4ccc(OC)c(OC)c4)nn23)ccc1O [Compound 356, 4-[6-(3,4-dimethoxyphenyl)imidazo[1,2-b]pyridazin-3-yl]-2-methoxy-phenol] | 44.5 nM |
| Oc1cccc(-c2cnc3ccc(-c4ccncc4)nn23)c1 [Compound 382, 3-[6-(4-pyridyl)imidazo [1,2-b]pyridazin-3-yl]phenol] | 203 nM |
